“Also recorded” adds a separate entry of the source.
Assays:
Format in all cases: in vivo
[1] = tested on: male ostriches which violently behaved, cried and did not take feed; test: Alleviation of the violence and stimulation of the appetite in male ostrich; details: male ostrich 100 kg, intramuscular
Text: (§1) After administration, their behaviors and appetites were observed.

[2] = tested on: male goats which violently behaved, cried and did not take feed; test: Alleviation of the violence and stimulation of the appetite in male goat; details: male goat 40 kg, intramuscular
Text: as §1

[3] = tested on: male cats which violently behaved, cried and did not take feed; test: Alleviation of the violence and stimulation of the appetite in male cat; details: male cat 1 kg, intramuscular
Text: as §1

[4] = tested on: male lion which violently behaved, cried and did not take feed; test: Alleviation of the violence and stimulation of the appetite in male lion
[5] = tested on: male dogs which violently behaved, cried and did not take feed; test: Alleviation of the violence and stimulation of the appetite in male dog; details: male dog 40 kg, intramuscular
Text: as §1

[6] = tested on: male horses which violently behaved, cried and did not take feed; test: Alleviation of the violence and stimulation of the appetite in male horse; details: male horse 200 kg, intramuscular
Text: as §1

[7] = 100 mg (1 mg per kg), Experimental Example 1
[8] = 40 mg (1 mg per kg), Experimental Example 26
[9] = 40 mg (1 mg per kg), Experimental Example 26, listed as 17-decanoate-4-estren-3-one
[10] = 1 mg per Table 5 (1 mg per kg; 100 mg [sic]), Experimental Example 22
[11] = male lion 100 kg, 100 mg (1 mg per kg), Experimental Example 28
[12] = male lion 100 kg, 10, 20, 50, 100, 150, 200, 500 and 1000 mg (0.1 to 10 mg per kg), Experimental Example 29
[13] = 40 mg (1 mg per kg), Experimental Example 20
[14] = 200 mg (1 mg per kg), Experimental Example 24

## CCCCCCCCCC(=O)O[C@H]1CC[C@H]2[C@@H]3CCC4=CC(=O)CC[C@@H]4[C@H]3CC[C@]12C [17β-decanoate-4-estren-3-one]
[1]; 10 mg (0.1 mg per kg), Experimental Example 2
  Violence and appetite, After administration: appetite: stimulated appetite
[1]; 20 mg (0.2 mg per kg), Experimental Example 2
  Violence and appetite, After administration: appetite: stimulated appetite
[1]; 50 mg (0.5 mg per kg), Experimental Example 2
  Violence and appetite, After administration: appetite: stimulated appetite
[1]; [7]
  Violence and appetite, After administration: appetite: appetite stimulated; also recorded: stimulated appetite
  Violence and appetite, After administration: violence: violence of estrus alleviated
  feed intake after administration: increased feed intake
[1]; 100 mg (1.0 mg per kg), Experimental Example 2
  Violence and appetite, After administration: appetite: stimulated appetite
[1]; 150 mg (1.5 mg per kg), Experimental Example 2
  Violence and appetite, After administration: appetite: stimulated appetite
[1]; 200 mg (2.0 mg per kg), Experimental Example 2
  Violence and appetite, After administration: appetite: stimulated appetite
[1]; 500 mg (5.0 mg per kg), Experimental Example 2
  Violence and appetite, After administration: appetite: stimulated appetite
[1]; 1000 mg (10 mg per kg), Experimental Example 2
  Violence and appetite, After administration: appetite: stimulated appetite
[2]; 4 mg (0.1 mg per kg), Experimental Example 27
  Violence and appetite, After administration: appetite: stimulated appetite
[2]; 8 mg (0.2 mg per kg), Experimental Example 27
  Violence and appetite, After administration: appetite: stimulated appetite
[2]; 20 mg (0.5 mg per kg), Experimental Example 27
  Violence and appetite, After administration: appetite: stimulated appetite
[2]; [8]
  Violence and appetite, After administration: appetite: stimulated appetite
  feed intake after administration: increased feed intake
[2]; [9]
  Violence and appetite, After administration: appetite: appetite stimulated
  Violence and appetite, After administration: violence: violence of estrus alleviated
[2]; 40 mg (1.0 mg per kg), Experimental Example 27
  Violence and appetite, After administration: appetite: stimulated appetite
[2]; 60 mg (1.5 mg per kg), Experimental Example 27
  Violence and appetite, After administration: appetite: stimulated appetite
[2]; 80 mg (2.0 mg per kg), Experimental Example 27
  Violence and appetite, After administration: appetite: stimulated appetite
[2]; 200 mg (5.0 mg per kg), Experimental Example 27
  Violence and appetite, After administration: appetite: stimulated appetite
[2]; 400 mg (10 mg per kg), Experimental Example 27
  Violence and appetite, After administration: appetite: stimulated appetite
[3]; 0.1 mg (0.1 mg per kg), Experimental Example 23
  Violence and appetite, After administration: appetite: stimulated appetite
[3]; 0.2 mg (0.2 mg per kg), Experimental Example 23
  Violence and appetite, After administration: appetite: stimulated appetite
[3]; 0.5 mg (0.5 mg per kg), Experimental Example 23
  Violence and appetite, After administration: appetite: stimulated appetite
[3]; 1 mg (1.0 mg per kg), Experimental Example 23
  Violence and appetite, After administration: appetite: stimulated appetite
[3]; [10]
  Violence and appetite, After administration: appetite: appetite stimulated; also recorded: stimulated appetite
  Violence and appetite, After administration: violence: violence of estrus alleviated
  feed intake after administration: increased feed intake
[3]; 1.5 mg (1.5 mg per kg), Experimental Example 23
  Violence and appetite, After administration: appetite: stimulated appetite
[3]; 2 mg (2.0 mg per kg), Experimental Example 23
  Violence and appetite, After administration: appetite: stimulated appetite
[3]; 5 mg (5.0 mg per kg), Experimental Example 23
  Violence and appetite, After administration: appetite: stimulated appetite
[3]; 10 mg (10 mg per kg), Experimental Example 23
  Violence and appetite, After administration: appetite: stimulated appetite
[4]; [11]
  appetite after intramuscular injection: appetite stimulated
  feed intake after administration: increased feed intake
  violence of estrus after intramuscular injection: violence of estrus alleviated
[4]; [12]
  appetite after intramuscular injection: appetite stimulated
  feed intake after administration: increased feed intake
  violence of estrus after intramuscular injection: violence of estrus alleviated
[5]; 4 mg (0.1 mg per kg), Experimental Example 21
  Violence and appetite, After administration: appetite: stimulated appetite
[5]; 8 mg (0.2 mg per kg), Experimental Example 21
  Violence and appetite, After administration: appetite: stimulated appetite
[5]; 20 mg (0.5 mg per kg), Experimental Example 21
  Violence and appetite, After administration: appetite: stimulated appetite
[5]; [13]
  Violence and appetite, After administration: appetite: appetite stimulated; also recorded: stimulated appetite
  Violence and appetite, After administration: violence: violence of estrus alleviated
  feed intake after administration: increased feed intake
[5]; 40 mg (1.0 mg per kg), Experimental Example 21
  Violence and appetite, After administration: appetite: stimulated appetite
[5]; 60 mg (1.5 mg per kg), Experimental Example 21
  Violence and appetite, After administration: appetite: stimulated appetite
[5]; 80 mg (2.0 mg per kg), Experimental Example 21
  Violence and appetite, After administration: appetite: stimulated appetite
[5]; 200 mg (5.0 mg per kg), Experimental Example 21
  Violence and appetite, After administration: appetite: stimulated appetite
[5]; 400 mg (10 mg per kg), Experimental Example 21
  Violence and appetite, After administration: appetite: stimulated appetite
[6]; 20 mg (0.1 mg per kg), Experimental Example 25
  Violence and appetite, After administration: appetite: stimulated appetite
[6]; 40 mg (0.2 mg per kg), Experimental Example 25
  Violence and appetite, After administration: appetite: stimulated appetite
[6]; 100 mg (0.5 mg per kg), Experimental Example 25
  Violence and appetite, After administration: appetite: stimulated appetite
[6]; [14]
  Violence and appetite, After administration: appetite: appetite stimulated; also recorded: stimulated appetite
  Violence and appetite, After administration: violence: violence of estrus alleviated
  feed intake after administration: increased feed intake
[6]; 200 mg (1.0 mg per kg), Experimental Example 25
  Violence and appetite, After administration: appetite: stimulated appetite
[6]; 300 mg (1.5 mg per kg), Experimental Example 25
  Violence and appetite, After administration: appetite: stimulated appetite
[6]; 400 mg (2.0 mg per kg), Experimental Example 25
  Violence and appetite, After administration: appetite: stimulated appetite
[6]; 1000 mg (5.0 mg per kg), Experimental Example 25
  Violence and appetite, After administration: appetite: stimulated appetite
[6]; 2000 mg (10 mg per kg), Experimental Example 25
  Violence and appetite, After administration: appetite: stimulated appetite

— patent US20040058898A1, “Pharmaceutical composition for alleviating the violence of a mammal comprising nortestosterone derivatives” (priority 2002, published 2004)
